As a reminder, the Ki is the dissociation constant of the complex between target and ligand, obtained from inhibition or displacement. Higher therefore signals a looser hold on the target.

The target in this assay is T1, ACC deaminase (1-aminocyclopropane-1-carboxylic acid deaminase) (Pseudomonas sp. ACP, UniProt Q00740).
T1 sequence (Q00740 1-338): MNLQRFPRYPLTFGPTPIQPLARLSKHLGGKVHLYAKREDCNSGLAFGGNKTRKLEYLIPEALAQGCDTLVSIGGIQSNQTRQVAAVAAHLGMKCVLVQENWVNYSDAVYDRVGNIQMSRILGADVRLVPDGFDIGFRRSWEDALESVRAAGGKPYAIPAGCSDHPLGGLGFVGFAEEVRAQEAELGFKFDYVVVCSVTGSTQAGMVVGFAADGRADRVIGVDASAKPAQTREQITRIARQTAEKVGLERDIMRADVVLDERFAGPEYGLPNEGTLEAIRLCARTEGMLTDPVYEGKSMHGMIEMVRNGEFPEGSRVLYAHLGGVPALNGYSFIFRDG
In kind it is biochemical.

Turning to `NC1(C(=O)O)CC1(F)F` (racemic) [compound 3, 1-Amino-2,2-difluorocyclopropane-1-carboxylic acid], the Ki was found to be 120 ± 40 nM.

The values are drawn from paper PMC5024786 (Organic letters, 2015).
